According to BindingDB's records for doi:10.7270/Q2JQ0ZF7 (Nmmlsc, 2009):
pEC50: −log10 of the molar value.

These molecules were tested against T1, GTPase KRas [1-37] (Homo sapiens, UniProt G3V5T7) (assay: Ras wild-type GTP-binding inhibitors, SAR follow-up, biochemical, oxadiazole analogs, multiplex bead flow cytometry (AID 2053)). Conditions: not given.
T1 construct: 1-37
T1 sequence (G3V5T7 whole entry): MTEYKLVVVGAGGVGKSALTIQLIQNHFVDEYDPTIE

pEC50 | Structure (SMILES)
< 4.52 | COc1ccc(-c2noc(CCC(=O)N3CCN(c4cccc(OC)c4)CC3)n2)cc1 [KUC103349N]
< 4.52 | COc1ccc(-c2noc(CCCC(=O)N3CCN(c4cc(C)ccc4C)CC3)n2)cc1 [KUC103353N]
< 4.52 | COc1ccc(-c2noc(CCC(=O)N3CCN(c4ccccc4)CC3)n2)cc1 [3-[3-(4-methoxyphenyl)-1,2,4-oxadiazol-5-yl]-1-(4-phenylpiperazin-1-yl)propan-1-one]
< 4.52 | COc1ccc(-c2noc(CCC(=O)N3CCN(c4ccccc4C)CC3)n2)cc1
< 4.52 | COc1ccc(-c2noc(CCC(=O)N3CCN(c4cccc(F)c4)CC3)n2)cc1 [1-[4-(3-fluorophenyl)piperazin-1-yl]-3-[3-(4-methoxyphenyl)-1,2,4-oxadiazol-5-yl]propan-1-one]
< 4.52 | COc1ccc(-c2noc(CCC(=O)N3CCN(c4cccc(C)c4)CC3)n2)cc1 [UNM-0000306125]
< 4.52 | COc1ccc(-c2noc(CCCCC(=O)N3CCN(c4cc(C)ccc4C)CC3)n2)cc1 [1-[4-(2,5-dimethylphenyl)-1-piperazinyl]-5-[3-(4-methoxyphenyl)-1,2,4-oxadiazol-5-yl]-1-pentanone]
< 4.52 | COc1ccc(-c2noc(CCC(=O)N3CCN(c4cccc(C)c4C)CC3)n2)cc1 [1-[4-(2,3-dimethylphenyl)-1-piperazinyl]-3-[3-(4-methoxyphenyl)-1,2,4-oxadiazol-5-yl]-1-propanone]
< 4.52 | COc1ccc(-c2noc(CC(=O)N3CCN(c4cc(C)ccc4C)CC3)n2)cc1 [1-[4-(2,5-dimethylphenyl)piperazin-1-yl]-2-[3-(4-methoxyphenyl)-1,2,4-oxadiazol-5-yl]ethanone]
< 4.52 | COc1ccc(-c2noc(CCC(=O)N3CCN(c4ccc(C)cc4)CC3)n2)cc1 [3-[3-(4-methoxyphenyl)-1,2,4-oxadiazol-5-yl]-1-[4-(4-methylphenyl)piperazin-1-yl]propan-1-one]
< 4.52 | COc1ccc(-c2noc(CCC(=O)N3CCN(c4cccc(Cl)c4)CC3)n2)cc1
< 4.52 | COc1ccc(-c2noc(CCC(=O)N3CCN(c4ccccc4Br)CC3)n2)cc1 [KUC103370N]
< 4.52 | COc1ccc(-c2noc(CCC(=O)N3CCN(c4ccccc4OC)CC3)n2)cc1 [3-[3-(4-methoxyphenyl)-1,2,4-oxadiazol-5-yl]-1-[4-(2-methoxyphenyl)-1-piperazinyl]-1-propanone]
< 4.52 | Cc1ccc(-c2noc(CCC(=O)N3CCN(c4cc(C)ccc4C)CC3)n2)cc1 [1-[4-(2,5-dimethylphenyl)-1-piperazinyl]-3-[3-(4-methylphenyl)-1,2,4-oxadiazol-5-yl]-1-propanone]
< 4.52 | COc1ccc(-c2noc(CCC(=O)N3CCN(c4ccccc4C(F)(F)F)CC3)n2)cc1 [UNM-0000306082]

The remaining lines, values behind:

Structure (SMILES) | pEC50
COc1ccccc1-c1noc(CCC(=O)N2CCN(c3cc(C)ccc3C)CC2)n1 [UNM-0000306071] | < 4.52
COc1ccc(-c2noc(CCC(=O)N3CCN(c4ccc(OC)cc4)CC3)n2)cc1 [3-[3-(4-methoxyphenyl)-1,2,4-oxadiazol-5-yl]-1-[4-(4-methoxyphenyl)piperazin-1-yl]propan-1-one] | < 4.52
Cc1ccc(C)c(N2CCN(C(=O)CCc3nc(-c4ccc(Cl)cc4)no3)CC2)c1 [UNM-0000306083] | < 4.52
COc1ccc(-c2noc(CCC(=O)N3CCC(c4cc(C)ccc4C)CC3)n2)cc1 [KUC103432N] | < 4.52
COc1ccc(-c2noc(CCC(=O)N3CCN(c4ccc(Br)cc4)CC3)n2)cc1 [1-[4-(4-bromophenyl)piperazin-1-yl]-3-[3-(4-methoxyphenyl)-1,2,4-oxadiazol-5-yl]propan-1-one] | < 4.52
Cc1ccc(C)c(N2CCN(C(=O)CCc3nc(-c4ccccc4F)no3)CC2)c1 [KUC103401N] | < 4.52
COc1ccc(-c2cc(CCC(=O)N3CCN(c4cc(C)ccc4C)CC3)on2)cc1 [1-[4-(2,5-dimethylphenyl)piperazin-1-yl]-3-[3-(4-methoxyphenyl)-1,2-oxazol-5-yl]propan-1-one] | < 4.52
COc1ccc(-c2noc(CCC(=O)N3CCN(c4cccc(C(F)(F)F)c4)CC3)n2)cc1 [1-{3-[3-(4-methoxyphenyl)-1,2,4-oxadiazol-5-yl]propanoyl}-4-[3-(trifluoromethyl)phenyl]piperazine] | < 4.52
COc1ccc(-c2ccc(CCC(=O)N3CCN(c4cc(C)ccc4C)CC3)[nH]2)cc1 [1-[4-(2,5-dimethylphenyl)piperazin-1-yl]-3-[5-(4-methoxyphenyl)-1H-pyrrol-2-yl]propan-1-one] | < 4.52
Cc1ccc(C)c(N2CCN(C(=O)CCc3nc(-c4cccc(C(F)(F)F)c4)no3)CC2)c1 [KUC103380N] | < 4.52
Cc1ccc(C)c(N2CCN(C(=O)CCc3nc(-c4cccc(Cl)c4)no3)CC2)c1 [UNM-0000306086] | < 4.52
COc1ccc(-c2noc(CCC(=O)N3CCN(c4ccc(Cl)cc4)CC3)n2)cc1 [UNM-0000306121] | < 4.52
Cc1ccc(C)c(N2CCN(C(=O)CCc3nc(-c4ccccc4Cl)no3)CC2)c1 [3-[3-(2-chlorophenyl)-1,2,4-oxadiazol-5-yl]-1-[4-(2,5-dimethylphenyl)-1-piperazinyl]-1-propanone] | < 4.52
COc1ccc(-c2coc(CCC(=O)N3CCN(c4cc(C)ccc4C)CC3)n2)cc1 [1-[4-(2,5-dimethylphenyl)piperazin-1-yl]-3-[4-(4-methoxyphenyl)-1,3-oxazol-2-yl]propan-1-one] | < 4.52
Cc1cccc(-c2noc(CCC(=O)N3CCN(c4cc(C)ccc4C)CC3)n2)c1 [1-[4-(2,5-dimethylphenyl)piperazin-1-yl]-3-[3-(3-methylphenyl)-1,2,4-oxadiazol-5-yl]propan-1-one] | < 4.52
Cc1ccc(C)c(N2CCN(C(=O)CCc3nc(-c4ccc(C(F)(F)F)cc4)no3)CC2)c1 [1-[4-(2,5-dimethylphenyl)-1-piperazinyl]-3-[3-[4-(trifluoromethyl)phenyl]-1,2,4-oxadiazol-5-yl]-1-propanone] | < 4.52
COc1ccc(-c2cc(CCC(=O)N3CCN(c4cc(C)ccc4C)CC3)[nH]n2)cc1 [UNM-0000306150] | < 4.52
Cc1ccc(C)c(N2CCN(C(=O)CCc3nc(-c4ccc(N(C)C)cc4)no3)CC2)c1 [KUC103409N] | < 4.52
COc1ccc(-c2cccc(CCC(=O)N3CCN(c4cc(C)ccc4C)CC3)c2)cc1 [UNM-0000306127] | < 4.52
Cc1ccc(C)c(N2CCN(C(=O)CCc3nc(-c4ccccc4C)no3)CC2)c1 | < 4.52
COc1ccc(-c2noc(CCC(=O)N3CCN(c4ccc(C(F)(F)F)cc4)CC3)n2)cc1 [3-[3-(4-methoxyphenyl)-1,2,4-oxadiazol-5-yl]-1-[4-[4-(trifluoromethyl)phenyl]piperazin-1-yl]propan-1-one] | < 4.52
Cc1ccc(C)c(N2CCN(C(=O)CCc3nc(-c4ccc(F)cc4)no3)CC2)c1 [KUC103364N] | < 4.52
Cc1ccc(C)c(N2CCN(C(=O)CCc3nc(-c4ccccc4C(F)(F)F)no3)CC2)c1 | < 4.52
COc1ccc(-c2noc(CCC(=O)N3CCN(c4ccc(F)cc4)CC3)n2)cc1 [KUC103398N] | < 4.52
COc1ccc(-c2ccc(CCC(=O)N3CCN(c4cc(C)ccc4C)CC3)o2)cc1 [KUC103447N] | < 4.52
COc1ccc(-c2ccc(CCC(=O)N3CCN(c4cc(C)ccc4C)CC3)s2)cc1 | < 4.52
Cc1ccc(C)c(N2CCN(C(=O)CCc3nc(-c4cccc(F)c4)no3)CC2)c1 [KUC103366N] | < 4.52
Cc1ccc(C)c(N2CCN(C(=O)CCc3nc(-c4cccc(Br)c4)no3)CC2)c1 [KUC103367N] | < 4.52

Same assay, conditions: inactive by the depositor's call

pEC50 | Structure (SMILES)
7.77 | COc1ccc(-c2noc(CCC(=O)N3CCN(c4cccc(Br)c4)CC3)n2)cc1 [1-[4-(3-bromophenyl)-1-piperazinyl]-3-[3-(4-methoxyphenyl)-1,2,4-oxadiazol-5-yl]-1-propanone]
5.73 | COc1ccc(-c2noc(CCC(=O)N3CCN(c4ccccc4Cl)CC3)n2)cc1 [1-[4-(2-chlorophenyl)piperazin-1-yl]-3-[3-(4-methoxyphenyl)-1,2,4-oxadiazol-5-yl]propan-1-one]
5.83 | COc1cccc(-c2noc(CCC(=O)N3CCN(c4cc(C)ccc4C)CC3)n2)c1
7.30 | COc1ccc(-c2noc(CCC(=O)N3CCN(c4ccccc4F)CC3)n2)cc1 [1-[4-(2-fluorophenyl)piperazin-1-yl]-3-[3-(4-methoxyphenyl)-1,2,4-oxadiazol-5-yl]propan-1-one]
5.77 | COc1ccc(-c2noc(CCC(=O)N3CCN(c4cc(C)ccc4C)CC3)n2)cc1 [1-[4-(2,5-dimethylphenyl)-1-piperazinyl]-3-[3-(4-methoxyphenyl)-1,2,4-oxadiazol-5-yl]-1-propanone]

Continued, molecule first:

Structure (SMILES) | pEC50
Cc1ccc(C)c(N2CCN(C(=O)CCc3nc(-c4ccccc4)no3)CC2)c1 [UNM-0000306070] | 6.06
Cc1ccc(C)c(N2CCN(C(=O)CCc3nc(-c4ccc(Br)cc4)no3)CC2)c1 [UNM-0000306072] | 5.74
Cc1ccc(C)c(N2CCN(C(=O)CCc3nc(-c4ccccc4Br)no3)CC2)c1 [3-[3-(2-bromophenyl)-1,2,4-oxadiazol-5-yl]-1-[4-(2,5-dimethylphenyl)-1-piperazinyl]-1-propanone] | 7.48
